# Tested on: corticospinal neurons (CSNs/CSMNs)
# Assay: Laser-capture microdissection and Illumina microarray gene expression in corticospinal neurons contralateral to stroke
# Format: in vivo, rat
# Experimental: In a separate group of animals (n=20), layer V pyramidal cells of the sensorimotor cortex were retrogradely labeled by injecting Alexa-Fluor-488-conjugated cholera toxin B subunit (CTB; 300 U/μl in sterile saline) into the cervical spinal cord. For this, animals were anesthetized with a combination of ketamine and Domitor (medetomidine) and a laminectomy was performed at the cervical level of the spinal cord (C2-C4). CTB was stereotaxically delivered into four sites lateral to the corticospinal tract. Injections (1.3 μl) were spaced 1 mm apart on the rostro-caudal axis, and were made 0.5 mm to the left and right of the midline. After allowing two weeks for transport of the tracer, we performed either sham surgery with no treatment (n=6) or stroke surgery combined with saline (n=3) or inosine (n=4) treatment as described above. Seven days later, animals were decapitated under transient gas anesthesia, brains were removed and rinsed in cold RPMI medium, and a tissue block containing the sensorimotor cortex was dissected and placed in OCT Tissue Tek Medium (Sakura Finetek USA Inc., CA) on dry ice within five minutes of death. Ten μm sections were cut onto precleaned Gold Seal RITE-ON glass slides (Gold Seal Prod-ucts, Portsmouth, N.H.), placed on dry ice, and rapidly stored at −80° C.
# Slide-mounted sections were thawed and dehydrated in RNAse-free ethanol gradients and xylene. Retro-gradely labeled, fluorescent cortical pyramidal cells in the undamaged hemisphere were individually captured using the Arcturus VERITAS system. ≧500 cells were collected from each animal and stored in Arcturus extraction buffer at −80° C. Total RNA was extracted from cells using the Micro-to-Midi TotalRNA Purification System (Invitrogen, Carlsbad Calif.) and double-amplified using the TargetAmp 2-Round Aminoallyl-aRNA Amplification kit 1.0 (Epicentre, Madison, Wis.). Amplified RNA was checked for average fragment length using the Agilent RNA 6000 Nano LabChip kit (Agilent Technologies, Santa Clara, Calif.) and then biotinylated and hybridized (1 μg) on Illumina RatRef-12 Expression BeadChip arrays (Illumina, San Diego Calif.), querying the expression of >22,000 RefSeq-curated rat transcripts. Results were obtained from a total of 15 samples representing 6 untreated controls, 4 animals with stroke treated with saline and 5 animals with stroke treated with inosine. Slides were processed and scanned with Illumina BeadStation platform according to the manufacturer protocol.
# Raw data was analyzed using Bioconductor packages (www.bioconductor.org, (Gentleman et al., 2004)). Low level quality-control analysis was performed using inter-array Pearson correlation and clustering based on variance. Two arrays (1 saline and 1 inosine-treated) were outliers and were excluded from the analysis. Data was normalized using quantile normalization, and analysis of differential expression was performed using a linear model fitting (LIMMA package, (Smyth, 2005). Differentially expressed genes were classified according to gene ontology using Bioconductor packages and online tools (DAVID, http://david.abcc.ncifcrf.gov/). Pathway analysis was carried out using Ingenuity Pathway Analysis (Ingenuity Systems, www.ingenuity.com).
# [1] = ILMN_161110, similar to myo-inositol 1-phosphate synthase A1
smiles,measurement,setting,value
OC[C@H]1O[C@@H](n2cnc3c(O)ncnc32)[C@H](O)[C@@H]1O [inosine],"Fold-Induction Stroke, ino vs. cntrl, Rpl31",ILMN_70426,0.90
same,"Signal Intensity, Rpl31","ILMN_70426, inosine after stroke",831
same,"Fold-Induction Stroke, ino vs. cntrl",[1],2.90
same,Signal Intensity Inosine,[1],3241
same,"Fold-Induction Stroke, ino vs. cntrl",Ifitm3 ILMN_48088,2.71
same,Signal Intensity Inosine,Ifitm3 ILMN_48088,2516
same,"Fold-Induction Stroke, ino vs. cntrl",Igfbp2 ILMN_54332,3.97
same,Signal Intensity Inosine,Igfbp2 ILMN_54332,3801
same,"Fold-Induction Stroke, ino vs. cntrl",Ing4 ILMN_54994,1.01
same,Signal Intensity Inosine,Ing4 ILMN_54994,1169
same,"Fold-Induction Stroke, ino vs. cntrl",Irf3 ILMN_51700,2.92
same,Signal Intensity Inosine,Irf3 ILMN_51700,12720
same,"Fold-Induction Stroke, ino vs. cntrl",LOC291847 ILMN_62527,1.32
same,Signal Intensity Inosine,LOC291847 ILMN_62527,558
same,"Fold-Induction Stroke, ino vs. cntrl",LOC294337 ILMN_68161,2.56
same,Signal Intensity Inosine,LOC294337 ILMN_68161,2622
same,"Fold-Induction Stroke, ino vs. cntrl",LOC295941 ILMN_58921,1.07
same,Signal Intensity Inosine,LOC295941 ILMN_58921,3970
same,"Fold-Induction Stroke, ino vs. cntrl",LOC300149 ILMN_48288,1.34
same,Signal Intensity Inosine,LOC300149 ILMN_48288,2789
same,"Fold-Induction Stroke, ino vs. cntrl",LOC301122 ILMN_62401,1.22
same,Signal Intensity Inosine,LOC301122 ILMN_62401,925
same,"Fold-Induction Stroke, ino vs. cntrl",LOC303702 ILMN_64738,1.72
same,Signal Intensity Inosine,LOC303702 ILMN_64738,899
same,"Fold-Induction Stroke, ino vs. cntrl",LOC303790 ILMN_56510,1.45
same,Signal Intensity Inosine,LOC303790 ILMN_56510,2300
same,"Fold-Induction Stroke, ino vs. cntrl",LOC304116 ILMN_63846,0.99
same,Signal Intensity Inosine,LOC304116 ILMN_63846,393
same,"Fold-Induction Stroke, ino vs. cntrl",LOC305076 ILMN_60367,1.56
same,Signal Intensity Inosine,LOC305076 ILMN_60367,824
same,"Fold-Induction Stroke, ino vs. cntrl",LOC305633 ILMN_51277,2.99
same,Signal Intensity Inosine,LOC305633 ILMN_51277,2047
same,"Fold-Induction Stroke, ino vs. cntrl",LOC317579 ILMN_58258,1.52
same,Signal Intensity Inosine,LOC317579 ILMN_58258,733
same,"Fold-Induction Stroke, ino vs. cntrl",LOC360627 ILMN_61895,2.62
same,Signal Intensity Inosine,LOC360627 ILMN_61895,1064
same,"Fold-Induction Stroke, ino vs. cntrl",LOC360644 ILMN_48641,3.68
same,Signal Intensity Inosine,LOC360644 ILMN_48641,602
same,"Fold-Induction Stroke, ino vs. cntrl",LOC361080 ILMN_61547,0.40
same,Signal Intensity Inosine,LOC361080 ILMN_61547,295
same,"Fold-Induction Stroke, ino vs. cntrl",LOC362015 ILMN_62932,1.37
same,Signal Intensity Inosine,LOC362015 ILMN_62932,1285
same,"Fold-Induction Stroke, ino vs. cntrl",LOC362304 ILMN_53204,1.34
same,Signal Intensity Inosine,LOC362304 ILMN_53204,5067
same,"Fold-Induction Stroke, ino vs. cntrl",LOC362857 ILMN_64100,0.43
same,Signal Intensity Inosine,LOC362857 ILMN_64100,1081
same,"Fold-Induction Stroke, ino vs. cntrl",LOC497739 ILMN_66205,1.65
same,Signal Intensity Inosine,LOC497739 ILMN_66205,4864
same,"Fold-Induction Stroke, ino vs. cntrl",LOC497841 ILMN_51249,11.52
same,Signal Intensity Inosine,LOC497841 ILMN_51249,2841
same,"Fold-Induction Stroke, ino vs. cntrl",LOC498185 ILMN_58236,2.76
same,Signal Intensity Inosine,LOC498185 ILMN_58236,804
same,"Fold-Induction Stroke, ino vs. cntrl",LOC498276 ILMN_65617,2.56
same,Signal Intensity Inosine,LOC498276 ILMN_65617,3014
same,"Fold-Induction Stroke, ino vs. cntrl",LOC498279 ILMN_65961,4.07
same,Signal Intensity Inosine,LOC498279 ILMN_65961,8892
same,"Fold-Induction Stroke, ino vs. cntrl",LOC498335 ILMN_53325,25.26
same,Signal Intensity Inosine,LOC498335 ILMN_53325,3310
same,"Fold-Induction Stroke, ino vs. cntrl",LOC498614 ILMN_54303,1.05
same,Signal Intensity Inosine,LOC498614 ILMN_54303,2373
same,"Fold-Induction Stroke, ino vs. cntrl",LOC498957 ILMN_67281,1.28
same,Signal Intensity Inosine,LOC498957 ILMN_67281,1081
same,"Fold-Induction Stroke, ino vs. cntrl",LOC499244 ILMN_49099,2.24
same,Signal Intensity Inosine,LOC499244 ILMN_49099,14824
same,"Fold-Induction Stroke, ino vs. cntrl",LOC500226 ILMN_54711,2.10
same,Signal Intensity Inosine,LOC500226 ILMN_54711,7922
same,"Fold-Induction Stroke, ino vs. cntrl",LOC500804 ILMN_61346,2.35
same,Signal Intensity Inosine,LOC500804 ILMN_61346,5507
same,"Fold-Induction Stroke, ino vs. cntrl",Lap3 ILMN_57870,1.01
same,Signal Intensity Inosine,Lap3 ILMN_57870,918
same,"Fold-Induction Stroke, ino vs. cntrl",Lcpl ILMN_58058,2.76
same,Signal Intensity Inosine,Lcpl ILMN_58058,1306
same,"Fold-Induction Stroke, ino vs. cntrl",Lgals3bp ILMN_60037,3.00

# Source: patent US8912144B2, “Method for treating stroke via administration of NEP1-40 and inosine” (Children's Medical Center Corporation, priority 2003, dated 2014)
